Reference: publication PMC7356940, “Comparison between Colistin Sulfate Dry Powder and Solution for Pulmonary Delivery” (Pharmaceutics, 2020)
Structures can show the parent of a compound that is named as a salt. Where a SMILES comes first, the peptide text is derived from it. Bridges are numbered along the chain shown (N, C = ends). [ ]: non-standard residue; d: D form. The star is where a group is joined. X1 = CC[C@H](C)CCCCC(=O)*; Dab = NCC[C@H](N)C(=O)O

Legend:
[1] = Plasma and ELF pharmacokinetics after intratracheal administration, simultaneous PK modeling; conditions: male, Sprague–Dawley, rat, in vivo, rats, 0.35 mg·kg^−1, whatever the formulation used
Description: In vivo experiments were undertaken in compliance with EC Directive 2010/63/EU after agreement by a local ethics committee. Male Sprague–Dawley rats (n = 68) from Janvier Laboratories (Le Genest-St.-Isle, France) with weights of 324 ± 24 g (mean ± SD) were used. Animals were acclimatized for 5 days prior to experiments. They always had free access to food and water.
The target COLI dose delivered was 0.35 mg kg^−1 (base form). This dose was previously used in our lab to investigate the pharmacokinetic properties of colistin following intratracheal administration of colistin sulfate solution in rats. […] The insufflator was weighed with a 0.01 mg accuracy scale (Sartorius KB BA100) before and after insufflation to determine the exact amount of powder delivered, and the dose of colistin administered was calculated based on the animal’s weight. […]
Bronchoalveolar lavage fluid (BALF) collection was performed according to methods previously described. […] COLI and urea concentrations were determined in both plasma and BALF. […] Therefore, the COLI concentration in ELF(CELF) was calculated using Equation 1 from measured COLI concentrations in BALF (CBAL) by using urea as a marker of dilution. CELF = CBAL (Ureaplasma/UreaBAL)(1) where UreaBAL and Ureaplasma correspond to the concentrations of urea determined in BALF and plasma. […]

[2] = Apical-to-basolateral COLI transport across Calu-3 monolayers; format: in vitro ADME; conditions: human; Calu-3, air-interface 15 days, apical-to-basolateral, COLI 100 mg/L (COLI or dissolved INU-COLI particles), HBSS/10 mM HEPES pH 7.4, 6 h, LC-MS/MS; read-out: COLI apparent permeability (Papp)
Description: (§1) Calu-3 cells were purchased from the American Type Culture Collection (Manassas, VA, USA). The cells were cultured in DMEM/Ham’s F12 (1/1) (PanBiotech) supplemented with L-glutamine (2 mM), fetal calf serum (10% v/v), and incubated at 37 °C under 90–95% of RH and 5% v/v of CO2 in the air.
(§2) Samples were taken after 60 min at 37 °C.
(§3) The determination of COLI plasma concentrations was performed based on a validated LC-MS/MS method previously described. The chromatography was performed on an Alliance 2695 system (Waters, France) with a Jupiter 300-Å column (5.0 µm, 50 mm, 2.0-mm i.d.; Waters, St.-Quentin en Yvelines, France) and a mobile phase (flow rate 0.2 mL/min) consisting of 0.1% (v/v) formic acid in acetonitrile–0.1% formic acid in water (25:75 v/v). The mass spectrometer Micromass Quattro microAPI (Waters, France) was used in the positive/ion mode. The calibration standard curve was prepared with seven samples in rat plasma with COLI base concentrations ranging between 0.0097 and 10 µg·mL^−1. For analysis of COLI in BALF and in the medium used for the COLI transport experiments, 150 µL of sample was mixed with 100 µL of plasma and analyzed as for plasma.

[3] = test system: Calu-3 cell epithelium model; experiment: as above; format: in vitro ADME
Description: as §1, §2, §3

[4] = test system: Calu-3 cell epithelium model; conditions: cited from earlier work
From the text: COLI Papp changed as a function of COLI concentration in the Calu-3 cell monolayer apical side (Figure 5). […] This value was consistent with a previous determination (0.42 × 10^−7 cm·s^−1).

[5] = previous studies; cited from earlier work
Description: The day before the experiment polyethylene catheters were implanted into the femoral artery of anesthetized rats. […] Accordingly, arterial blood samples were collected at 0, 0.25, 0.5, 1, 2, 3, and 4 h after pulmonary administration. Plasma was obtained and frozen at −80 °C.

[6] = fixed in the PK model; cited from earlier work
From the text: Plasma and ELF COLI concentrations versus time were simultaneously analyzed by a nonlinear mixed-effects method with S-ADAPT software (v 1.52, Biomedical Simulations Resource (BMSR), Los Angeles, USA) with S-ADAPT TRAN translator [19]. The structural model (Appendix C, Figure A3) used for data analysis has been developed in a previous study to fit plasma and ELF COLI concentrations after COLI intravenous administrations and solution nebulization to rats. Briefly, the systemic pharmacokinetics of COLI were described by a two-compartment model, characterized by a central compartment (Vc ...

[7] = cited from earlier work
From the text: Due to its low permeability across the lung–blood barrier, colistin methanesulfonate (CMS) is one of only four antibiotics currently used to treat Pseudomonas aeruginosa lung infections by inhalation. CMS is an anionic prodrug of colistin (COLI), which is a cationic lipopeptide mix composed mainly of two molecules: colistin A and B. Inhaled COLI therapy is almost always conducted by means of nebulization of CMS instead of the cationic COLI since the use of the latter can lead to more side effects, such as bronchoconstriction, throat irritation, and cough.

P. aeruginosa = conditions: cited from earlier work
From the text: However, CMS is not an optimal p ...

Compound	Cmax [1] [ng/mL]	Tmax [1] [min]	Papp A→B at 6 h, 100 mg/L [2] [×10⁻⁶ cm/s]	fold increase in COLI Papp ([3]; Calu-3, COLI concentration changed from 100 to 4000 mg/L) [fold]	fold increase in COLI Papp ([3]; Calu-3 A-B, 6 h, COLI concentration increased to 1000 mg/L (from 100 mg/L)) [fold]	additional fold increase in COLI Papp ([3]; Calu-3 A-B, 6 h, further increase in COLI concentration to 4000 mg/L (from 1000 mg/L)) [fold]	COLI Papp, previous determination [4]	plasma COLI half-life [5] [min]	COLI unbound plasma fraction [6] [%]	COLI concentrations measured in the ELF ([7]; patients, six hours after inhalation of nebulized CMS solutions)	fraction of the CMS dose converted into COLI in the lung ([7]; human, in vivo)	activity against P. aeruginosa (P. aeruginosa)
CC[C@H](C)CCCCC(=O)N[C@@H](CCN)C(=O)N[C@H](C(=O)N[C@@H](CCN)C(=O)N[C@H]1CCNC(=O)[C@H]([C@@H](C)O)NC(=O)[C@H](CCN)NC(=O)[C@H](CCN)NC(=O)[C@H](CC(C)C)NC(=O)[C@@H](CC(C)C)NC(=O)[C@H](CCN)NC1=O)[C@@H](C)O [COLI, Colistin sulfate salt] (X1-[Dab]T[Dab][Dab][Dab][dL]L[Dab][Dab]T; lactam 4-C)	330	30	0.043 ± 0.011	10	4	2.5	0.42 10^−7 cm·s^−1	30 to 40	45	greater than 1000 mg/L	–	–
colistin methanesulfonate [CMS]	–	–	–	–	–	–	–	–	–	–	1.4 % (w/w)	inactive
